The text below walks through data of patent US12133900B2, “Synthesis and composition of amino acid linking groups conjugated to compounds used for the targeted imaging of tumors” (Purdue Research Foundation, priority 2013, dated 2024).

The subject of series [1] is FR-positive IGROV tumor xenografts. The series is described as follows: Imaging and biodistribution, IGROV ovarian xenograft. Format: in vivo, mice. The following applies: 2 nmol, 2 h. The procedure:
Seven-week-old female nu/nu mice were inoculated subcutaneously with KB (1.0×10^6/mouse in RPM11640 medium), IGROV (5.0×10^6/mouse in 50% high concentrated matrigel+RPM11640 medium), SKOV3 (5.0×10^6/mouse in RPM11640 medium), OVCAR3 (5.0×10^6/mouse in RPM11640 medium), MDA-MB231 (1.0×10^6/mouse in RPM11640 medium), M109 (1.0×10^6/mouse in RPM11640 medium) or A549 cells (2.0×10^6/mouse in RPM11640 medium) on the shoulder. Growth of the tumors was measured in perpendicular directions every 2 days using a caliper (body weights were monitored on the same schedule), and the volumes of the tumors were calculated as 0.5×L×W^2 (L=longest axis and W=axis perpendicular to L in millimeters). Once tumors reached approximately 300-400 mm3 in volume, animals (3-5 mice/group) were intravenously injected with the compound of interest in PBS (for dose escalation in KB tumor model: 0.3-90 nmol, for time dependent in KB tumor model: 2 or 10 nmol, and for general whole body imaging and biodistribution for all tumor models: 2 nmol, in 100 μL in PBS per mouse). For whole body imaging and biodistribution studies, animals were euthanized 2 hours after administration of the compound of interest by CO2 asphyxiation. For time dependent studies, animals were imaged under anesthesia using isoflurane. Whole body imaging (intact tumor) experiments was then performed using a Caliper IVIS Lumina II Imaging Station with Living Image 4.0 software (PerkinElmer Inc, MA).
(§1) Following whole body imaging, animals were dissected and selected tissues (heart, lung, liver, spleen, kidneys, stomach, small intestine, large intestine, muscle, skin, and tumor) were analyzed for fluorescence activity using IVIS imager using same settings as in whole body imaging.

The test system of series [2] is FR-positive MDA-MB 231 orthotopic tumors. The series is described as follows: Imaging and biodistribution, MDA-MB 231 orthotopic model. Format: in vivo, mice. The following applies: 2 nmol, 2 h. The procedure:
Breast cancer was developed by implanting breast cancer cells in the […] fat pad of the mouse.
as §1

The subject of series [3] is FR-positive L1210A tumors. Put plainly: Imaging and biodistribution, L1210A metastatic model (OTL38). Format: in vivo, mice. The note with it: 2 nmol, 2 h. The procedure: (§2) One million (1×106) of either L1210A or MDA-MB231 cancer cells per mouse (cancer cells/mouse) were administered via tail vein injection into the mice. Tumor growth was monitored every other day using a Caliper IVIS Lumina II Imaging Station with Living Image 4.0 software (PerkinElmer Inc.).
as §1

Series [4] concerns breast cancer cells metastasized to lung. The series is described as follows: Imaging, MDA-MB 231 metastatic model. It is filed as in vivo, mice. The note with it: 2 nmol, 2 h. The procedure:
as §2

Series [5] has as its system FR-positive SKOV3 orthotopic tumor. The series is described as follows: Imaging and biodistribution, SKOV3 ovarian orthotopic model. Format: in vivo, mice. The note with it: 2 nmol, 2 h. The procedure:
(§3) Ovarian cancer was developed through surgical implantation of ovarian cancer cell lines near the ovarian bursa of the mouse. Seven-week-old female athymic nude mice were given 1-5% isoflurane for anesthesia and subcutaneous injection of 5 mg/kg meloxicam preoperatively for analgesia. The mice were placed dorsal side up and washed above the right ovary (just lateral to the epaxial muscles and ˜1.15 cm caudal to the rib cage) with a chlorhexidine scrub to ensure a sterile area for incision. After an insertion was made using scalpel through the skin, the peritoneal lining was lifted to make a small incision using a scissor and widened using a forceps. The ovarian fat pad was carefully lifted out and placed on a wetted gauze pad adjacent to the incision. Ovarian cancer cells (50,000 cells in 5 μL) were injected between the bursa and the ovary using a 30 gage needle. After placing the ovarian fat pad back into the body cavity, the body wall was closed using 3-0 or 4-0 vicryl and the skin was closed using staples.
as §1

Series [6] in a line: Chemical and optical properties of NIR dyes (Table 1). It is filed as physicochemical.
Series [7] has as its system FR-positive IGROV orthotopic ovary tumor. The series is described as follows: Imaging and biodistribution, IGROV ovarian orthotopic model. The note with it: 2 nmol, 2 h. It is filed as in vivo, mice. The procedure: as §3, §1
Series [8] concerns the target T1, folate receptor (FR-α) on KB cells (Homo sapiens, UniProt P15328).
T1 construct: KB cells that overexpress FR-α were seeded in 24-well (100,000 cells/well) Falcon plates; host or cells: KB cells (human; described as a HeLa derivative)
The series is described as follows: Competition binding with [3H]-folic acid on KB cells. The procedure: KB cells that overexpress FR-α were seeded in 24-well (100,000 cells/well) Falcon plates and allowed to form monolayers over a period of 24 h. […] After incubating for 1 hour at 37° C., cells were rinsed with PBS (2×0.5 mL) and 1M trichloroacetic acid (1×0.5 mL) to remove any unbound radioactive materials. After adding 1% sodium dodecylsulfate in PBS (0.5 mL), cells were transferred into individual scintillation vials containing Ecolume scintillation cocktail (3.0 mL) and counted in a liquid scintillation analyzer. The relative binding affinities were calculated using a plot of cell bound radioactivity versus the concentration of the test article using Graph Pad Prism 4.
(§4) KB cells that overexpress FR-α were seeded in 24-well (100,000 cells/well) Falcon plates (BD Biosciences, CA) and allowed to form monolayers over a period of 12 h. […] After incubating for 1 h at 37° C., cells were rinsed with PBS (3×0.5 mL, Gibco, NY) to remove any unbound radioactive materials. After adding 0.25 M sodium hydroxide (0.5 mL) and incubating for 12 h at 4° C., cells were transferred into individual scintillation vials containing Ecolite scintillation cocktail (3.0 mL, MP Biomedicals, OH) and counted in a liquid scintillation analyzer (Packard). The relative binding affinities were calculated using a plot of % cell bound radioactivity versus the log concentration of the test article using GraphPad Prism 4.
as §4, with “12 hours.” for “12 h.”, “1 hour” for “1 h”, “12 hours” for “12 h”

T1 sequence (P15328 25-234): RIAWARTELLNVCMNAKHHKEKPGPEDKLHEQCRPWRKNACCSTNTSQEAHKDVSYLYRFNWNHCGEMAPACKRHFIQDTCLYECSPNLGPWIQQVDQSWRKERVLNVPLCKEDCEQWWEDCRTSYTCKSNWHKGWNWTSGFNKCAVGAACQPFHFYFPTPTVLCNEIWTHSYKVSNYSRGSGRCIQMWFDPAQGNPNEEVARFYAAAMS

Regarding `CC1(C)C(/C=C/C2=C(Oc3ccc(C[C@H](NC(=O)c4ccc(NCc5cnc6nc(N)[nH]c(=O)c6n5)cc4)C(=O)[O-])cc3)C(=C/C=C3\N(CCCCS(=O)(=O)[O-])c4ccc(S(=O)(=O)[O-])cc4C3(C)C)/CCC2)=[N+](CCCCS(=O)(=O)[O-])c2ccc(S(=O)(=O)[O-])cc21.[H+].[H+].[H+].[H+]` [OTL-0038, Pte-Tyr-S0456], in series [1], the ex-vivo tissue biodistribution result is “highest fluorescence intensities were observed in FR-positive tumors and kidneys”; the tumor-to-normal tissue ratios entry is reported as “excellent tumor-to-normal tissue ratios”; the “whole body imaging: accumulation” value is listed as “accumulated mainly in the FR-positive IGROV tumor xenografts”. Moreover, in series [2], the ex-vivo tissue biodistribution entry is “highest fluorescence intensities were observed in FR-positive tumors and kidneys”; the tumor-to-normal tissue ratios result is “excellent tumor-to-normal tissue ratios”; the “whole body imaging: accumulation” value is “accumulated mainly in the FR-positive MDA-MB 231 orthotopic tumors”. Also, in series [3], the tumor-to-normal tissue ratios entry is “excellent tumor-to-normal tissue ratios”; the “whole body imaging: accumulation” value is “accumulated mainly in the FR-positive L1210A tumors metastasize to the liver, lung and spleen”. The accumulation result in series [4] was “mainly accumulated in the breast cancer cells metastasized to lung”. In series [5], the “accumulation (tissue biodistribution)” value is on record as “accumulated mainly in the ovary with FR-positive SKOV3 orthotopic tumor” and the tumor-to-normal tissue ratios entry is “excellent tumor-to-normal tissue ratios”. Further, in series [6], the “E” value came to 272000 M⁻¹ cm⁻¹, the “Q (%)” value stood at 15.6%, the “Stokes Shift (nm)” value came out at 20 nm and the “λem (nm)” value worked out at 776 nm. Further, the “λex (nm)” value in series [6] was 796 nm. Also, in series [7], the “accumulation (tissue biodistribution)” value was “accumulated mainly in the FR-positive IGROV orthotopic ovary tumor” and the tumor-to-normal tissue ratios entry is reported as “excellent tumor-to-normal tissue ratios”. For the same compound, in series [8] (KB cells), the “affinity and specificity for folate receptor (words)” value (shortened to “affinity and specificity”) is given as “compares well with the binding affinity of folic acid”; the “competition with [3H]-folic acid” value is “competed well with [3H]-folic acid”. Further, the “affinity and specificity” value in series [8] (KB cells, listed as OTL38) was “binds to FR with high affinity and specificity”. Further, the “affinity and specificity” value in series [8] (KB cells, listed as Pte-Tyr-S0456) was “binds folate receptor with high affinity and specificity”. The Relative binding affinities in series [8] (relative affinity of folic acid=1, <1 weaker) is given as 0.71.
